In general, Ki refers to the equilibrium dissociation constant of an inhibitor or competing ligand from its target.

The values below come from ChEMBL document CHEMBL1141640, “Cyclic guanidines as dual 5-HT5A/5-HT7 receptor ligands: optimising brain penetration” (Bioorg Med Chem Lett, 2008).

Experiment [1] has as its target 5-hydroxytryptamine receptor 5A (Homo sapiens, UniProt P47898). The experiment in a line: Binding affinity to human 5HT5A receptor. Conditions: read-out: Ki.
In experiment [2] the target is 5-hydroxytryptamine receptor 7 (Homo sapiens, UniProt P34969). Description: Binding affinity to human 5HT7 receptor.
For experiment [3], the target named is 5-hydroxytryptamine receptor 5A (Rattus norvegicus, UniProt P35364). Description: Binding affinity to rat 5HT5A receptor.
For experiment [4], the target named is T1, 5-hydroxytryptamine receptor 1A (Homo sapiens, UniProt P08908).
T1 sequence (P08908 whole entry): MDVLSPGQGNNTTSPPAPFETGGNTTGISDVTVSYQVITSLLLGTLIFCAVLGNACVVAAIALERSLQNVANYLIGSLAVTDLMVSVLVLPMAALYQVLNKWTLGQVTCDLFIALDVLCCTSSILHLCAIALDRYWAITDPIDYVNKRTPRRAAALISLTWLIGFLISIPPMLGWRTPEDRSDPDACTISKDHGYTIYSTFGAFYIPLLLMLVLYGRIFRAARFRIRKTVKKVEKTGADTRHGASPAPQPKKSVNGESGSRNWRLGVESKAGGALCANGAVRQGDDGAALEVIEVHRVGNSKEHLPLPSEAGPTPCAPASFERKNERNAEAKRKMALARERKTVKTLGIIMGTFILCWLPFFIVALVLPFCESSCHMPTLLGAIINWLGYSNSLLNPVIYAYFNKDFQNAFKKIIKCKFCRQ
The experiment in a line: Binding affinity to human 5HT1A receptor.

Experiment [5] has as its target 5-hydroxytryptamine receptor 1D (Homo sapiens, UniProt P28221). The experiment in a line: Binding affinity to human 5HT1D receptor.
For experiment [6], the target named is 5-hydroxytryptamine receptor 2A (Homo sapiens, UniProt P28223). Description: Binding affinity to human 5HT2A receptor.
Experiment [7] concerns the target T2, 5-hydroxytryptamine receptor 2C (Homo sapiens, UniProt P28335).
T2 sequence (P28335 whole entry): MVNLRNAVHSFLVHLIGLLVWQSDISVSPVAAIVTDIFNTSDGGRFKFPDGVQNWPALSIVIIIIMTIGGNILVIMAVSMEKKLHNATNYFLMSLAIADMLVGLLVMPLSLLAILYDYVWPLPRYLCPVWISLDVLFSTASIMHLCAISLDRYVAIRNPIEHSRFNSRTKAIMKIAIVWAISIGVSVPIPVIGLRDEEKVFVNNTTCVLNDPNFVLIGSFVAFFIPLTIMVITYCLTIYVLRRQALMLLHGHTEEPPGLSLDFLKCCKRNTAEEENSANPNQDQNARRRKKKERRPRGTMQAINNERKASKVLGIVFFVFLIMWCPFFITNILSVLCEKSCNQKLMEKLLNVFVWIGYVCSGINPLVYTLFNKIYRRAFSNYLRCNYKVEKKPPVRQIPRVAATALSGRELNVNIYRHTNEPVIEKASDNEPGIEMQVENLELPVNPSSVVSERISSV
Description: Binding affinity to human 5HT2C receptor.

For experiment [8], the target named is T3, 5-hydroxytryptamine receptor 3A (Homo sapiens, UniProt P46098).
T3 sequence (P46098 whole entry): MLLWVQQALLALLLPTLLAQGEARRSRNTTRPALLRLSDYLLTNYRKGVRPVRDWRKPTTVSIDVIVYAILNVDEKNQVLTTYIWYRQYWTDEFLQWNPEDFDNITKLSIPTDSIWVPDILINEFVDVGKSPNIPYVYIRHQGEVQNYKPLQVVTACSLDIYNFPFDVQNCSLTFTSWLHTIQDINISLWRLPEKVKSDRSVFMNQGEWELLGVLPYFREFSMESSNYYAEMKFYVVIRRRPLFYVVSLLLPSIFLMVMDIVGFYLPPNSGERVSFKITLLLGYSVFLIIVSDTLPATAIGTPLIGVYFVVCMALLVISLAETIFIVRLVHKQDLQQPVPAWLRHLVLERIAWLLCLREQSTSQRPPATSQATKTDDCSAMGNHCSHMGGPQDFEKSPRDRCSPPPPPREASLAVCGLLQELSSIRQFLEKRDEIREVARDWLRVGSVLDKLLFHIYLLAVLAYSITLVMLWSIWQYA
The experiment in a line: Binding affinity to human 5HT3 receptor.

For experiment [9], the target named is 5-hydroxytryptamine receptor 6 (Homo sapiens, UniProt P50406). Description: Binding affinity to human 5HT6 receptor.
Sequence of 5-hydroxytryptamine receptor 6 (P50406 whole entry): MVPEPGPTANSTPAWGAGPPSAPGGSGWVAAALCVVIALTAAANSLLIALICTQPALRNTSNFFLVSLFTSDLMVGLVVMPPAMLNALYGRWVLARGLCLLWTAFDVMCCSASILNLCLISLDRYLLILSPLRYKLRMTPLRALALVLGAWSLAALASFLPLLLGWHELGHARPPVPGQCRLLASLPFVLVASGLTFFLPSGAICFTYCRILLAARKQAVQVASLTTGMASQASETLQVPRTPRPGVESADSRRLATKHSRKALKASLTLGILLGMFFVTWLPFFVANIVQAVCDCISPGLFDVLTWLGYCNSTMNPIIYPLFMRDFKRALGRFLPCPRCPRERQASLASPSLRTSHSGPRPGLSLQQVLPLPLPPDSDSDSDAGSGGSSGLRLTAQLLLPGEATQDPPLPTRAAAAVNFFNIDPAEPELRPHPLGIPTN

Sequence of 5-hydroxytryptamine receptor 5A (Rattus norvegicus, UniProt P35364) (P35364 whole entry): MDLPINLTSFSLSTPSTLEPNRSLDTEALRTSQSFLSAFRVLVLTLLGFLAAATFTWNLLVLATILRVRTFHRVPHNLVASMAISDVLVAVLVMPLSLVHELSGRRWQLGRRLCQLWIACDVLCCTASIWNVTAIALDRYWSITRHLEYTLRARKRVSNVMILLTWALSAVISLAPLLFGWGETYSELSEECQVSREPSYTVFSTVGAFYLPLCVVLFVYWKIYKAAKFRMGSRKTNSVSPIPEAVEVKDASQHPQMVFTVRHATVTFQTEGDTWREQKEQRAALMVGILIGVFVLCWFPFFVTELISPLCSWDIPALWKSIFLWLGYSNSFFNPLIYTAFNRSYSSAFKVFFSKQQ
Sequence of 5-hydroxytryptamine receptor 1D (P28221 whole entry): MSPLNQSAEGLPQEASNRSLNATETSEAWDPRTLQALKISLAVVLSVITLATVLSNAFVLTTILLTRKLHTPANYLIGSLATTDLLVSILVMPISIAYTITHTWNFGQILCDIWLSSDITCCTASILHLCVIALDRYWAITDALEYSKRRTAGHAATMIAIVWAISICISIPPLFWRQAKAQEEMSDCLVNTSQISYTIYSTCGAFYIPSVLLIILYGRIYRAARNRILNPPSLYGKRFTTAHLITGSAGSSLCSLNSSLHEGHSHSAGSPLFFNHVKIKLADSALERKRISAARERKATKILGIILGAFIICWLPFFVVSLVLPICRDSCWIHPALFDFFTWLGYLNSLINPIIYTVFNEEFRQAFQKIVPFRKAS
Sequence of 5-hydroxytryptamine receptor 5A (Homo sapiens, UniProt P47898) (P47898 whole entry): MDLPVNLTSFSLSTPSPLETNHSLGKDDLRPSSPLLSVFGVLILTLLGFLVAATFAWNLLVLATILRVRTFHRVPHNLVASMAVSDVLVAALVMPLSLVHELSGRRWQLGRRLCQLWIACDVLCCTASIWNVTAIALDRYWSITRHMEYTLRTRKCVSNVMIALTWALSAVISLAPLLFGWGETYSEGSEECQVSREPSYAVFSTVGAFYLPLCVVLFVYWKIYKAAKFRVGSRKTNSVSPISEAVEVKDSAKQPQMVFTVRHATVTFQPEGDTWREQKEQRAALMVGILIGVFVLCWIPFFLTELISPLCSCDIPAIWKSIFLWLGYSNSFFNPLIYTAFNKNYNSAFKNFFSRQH
Sequence of 5-hydroxytryptamine receptor 2A (P28223 whole entry): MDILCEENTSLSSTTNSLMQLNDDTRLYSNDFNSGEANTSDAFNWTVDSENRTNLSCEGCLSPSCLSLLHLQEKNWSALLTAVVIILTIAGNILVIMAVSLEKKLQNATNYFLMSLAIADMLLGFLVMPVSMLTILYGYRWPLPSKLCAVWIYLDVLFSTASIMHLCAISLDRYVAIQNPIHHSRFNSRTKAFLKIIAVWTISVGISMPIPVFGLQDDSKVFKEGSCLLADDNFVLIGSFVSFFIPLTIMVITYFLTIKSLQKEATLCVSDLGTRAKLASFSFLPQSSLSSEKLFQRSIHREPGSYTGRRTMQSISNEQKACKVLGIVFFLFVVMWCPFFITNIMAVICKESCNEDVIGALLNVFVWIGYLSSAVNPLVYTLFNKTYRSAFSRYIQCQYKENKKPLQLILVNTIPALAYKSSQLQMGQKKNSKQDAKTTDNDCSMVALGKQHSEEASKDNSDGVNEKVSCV
Sequence of 5-hydroxytryptamine receptor 7 (P34969 whole entry): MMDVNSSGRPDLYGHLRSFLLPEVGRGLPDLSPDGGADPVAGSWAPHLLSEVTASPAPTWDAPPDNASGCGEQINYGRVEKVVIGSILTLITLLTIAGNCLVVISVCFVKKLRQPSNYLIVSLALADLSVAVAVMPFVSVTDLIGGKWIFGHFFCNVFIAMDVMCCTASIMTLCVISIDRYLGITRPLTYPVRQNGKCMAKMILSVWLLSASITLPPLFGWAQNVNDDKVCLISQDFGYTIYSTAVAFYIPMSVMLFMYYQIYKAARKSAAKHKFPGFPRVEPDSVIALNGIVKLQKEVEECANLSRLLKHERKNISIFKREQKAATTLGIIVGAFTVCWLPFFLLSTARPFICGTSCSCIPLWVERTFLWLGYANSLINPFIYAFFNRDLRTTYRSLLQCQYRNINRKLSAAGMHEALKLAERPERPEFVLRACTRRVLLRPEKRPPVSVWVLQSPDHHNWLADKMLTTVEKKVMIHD

For the compound `C[C@@H]1NC(N)=Nc2cccc(Cl)c21`, the inhibition constant Ki stood at 0.0016 µM in experiment [1]; 0.006 µM in experiment [2]; 0.0013 µM in [3]; 0.0952 µM in experiment [4]; 1.1 µM in [5]; 0.257 µM in experiment [6]. Besides, the inhibition constant Ki in experiment [7] was 0.055 µM; in experiment [8], 1.06 µM; in [9] it was 1.03 µM.
